How the values were obtained:
[1] = system: P. aeruginosa; conditions: CDTA added at t=12 minutes, final 20 mM, to mixture with 20 mM MgCl2
Procedure: Either 100 μl of bacterial culture or 100 μl of a 1×10^−9 M ATP stock (control) was added to 100 μl of the reconstitution reagent and luminescence was measured periodically over a 35 minute time period. The microbial cultures were tested at approximately 10^6 cells per well. Additional CDTA was added at t=12 minutes to each of the samples (final concentration=20 mM CDTA).

[2] = system: Pseudomonas aeruginosa (ATCC27853); assay: Effect of alternate divalent cations on ATP extraction and detection; type: cell-based; conditions: high (20 mM) divalent cation concentration; approximately 1×10^6 cells per well
Procedure: To evaluate the effects of alternate divalent cations on ATP extraction and detection at low (0.2 mM) and high (20 mM) divalent cation concentrations, Pseudomonas aeruginosa (ATCC27853) was grown in Mueller Hinton II (MH II) Broth at 37° C. overnight. The overnight culture was diluted 50-fold in fresh MH II Broth and then incubated for several hours to reach log phase. Cells were diluted to approximately 1×10^6 cells per well.

[3] = system: S. aureus ATCC 25923; assay: Bioluminescent detection of bacterial growth as a function of antibiotic dose; type: cell-based; conditions: 19 hours of incubation at 37° C.; ATP detection assay
Procedure: Four bacterial strains were used to evaluate the relationship between microbial cell number and luminescence. Bacterial strains Escherichia coli (ATCC25922), Staphylococcus aureus (ATCC25923), Pseudomonas aeruginosa (ATCC27853) and Bacillus cereus (ATCC10987) were grown in Mueller Hinton II (MH II) Broth at 37° C. overnight. The overnight culture was diluted 50-fold in fresh MH II Broth and then incubated for several hours to reach log phase. Samples of the culture were serially diluted using MH II Broth in a 96-well plate. […] Luminescence was recorded on a Veritas™ Microplate Luminometer from Turner Biosystems (Sunnyvale, Calif.). S. aureus ATCC 25923 strain was grown in MH II Broth at 37° C. overnight. The overnight culture was diluted 100-fold in fresh MH II Broth and used as inoculum for the antimicrobial screen. Working stocks (50×) of LOPAC compounds and standard antibiotics were prepared in DMSO. Each well of the 96-well multiwell plate contained 245 μl of the inoculum and 5 μl of the 50× working stock. […] One hundred microliters of the culture was taken from each well, and the luciferase detection assay was performed as described in Example 9. Luminescence was measured using a Veritas™ Microplate Luminometer from Turner Biosystems (Sunnyvale, Calif.). […] Luminescence was recorded on a Veritas™ Microplate Luminometer from Turner Biosystems (Sunnyvale, Calif.).

Row | SMILES | effect on ATP detection (luminescence) [2] | also measured
1 | O=C(O)CN(CC(=O)O)C1CCCCC1N(CC(=O)O)CC(=O)O (stereo not shown) [CDTA, 1,2-Cyclohexanedinitrilotetraacetic acid] |  | neutralization of inhibitory divalent cation effects on ATP detection (luminescence) [1]: capable of neutralizing the inhibitory effects of divalent cations
2 | [Ca+2].[Cl-].[Cl-] [Ca^2+, CaCl2] | impede ATP detection | 
3 | [Cl][Mn][Cl] [Mn^2+, MnCl2] | impede ATP detection | 
4 | Cc1onc(-c2ccccc2)c1C(=O)N[C@@H]1C(=O)N2[C@@H]1SC(C)(C)[C@@H]2C(=O)O [oxacillin] |  | relative percentage of RLU compared to the no-oxacillin control [3]: dose-dependent effect
